Patent US20020071842A1, “Soluble CD1 compositions and uses thereof” (priority 2000, published 2002)

What was measured:
Test in all cases: Plate-bound mCD1d fusion protein hybridoma stimulation assay (IL-2 ELISA)
Assay type in all cases: cell-based, mouse
24.8.A hybridoma = conditions: for IL-2 response to mCD1d fusion protein pre-treated with purified or synthetic lipid: 24.8.A hybridoma, compared to untreated or buffer treated fusion protein
Source text: (§1) The CD1d-restricted T cell clones 24.7, 24.8, 24.9 (NKT cell) and 14S.6, 14S.7, 14S.10, and 14S.15 (diverse TCRs) were all derived from spleen of wild type C57BL/6 mice, as described previously (Behar, S. M. et al., J. Immunol., 162:161-7 (1999)). To generate T cell hybridomas, the activated T cells were fused to the aminopterin-sensitive BW5147 αβTCR^− thymoma cell line using PEG1500, and hybrids were selected in HAT medium (Life Technologies, Gaithersburg, Md.). Resulting TT hybridomas were tested for recognition of RMA-S cells transfected with mCD1D1 compared to untransfected RMA-S cells, as described below. […] The hybridomas are distinguished from the original T cell clones by the addition of a letter to their names. The KT/7, KT/12, KT/22, and KT/23 and Vβ/9 NKT cell hybridomas were derived from NK1.1^+ T cells enriched from spleen of C57BL/6 mice by depletion of CD8+ T cells, naive T cells, and B cells by mAbs (anti-B220, CD8, and CD62L, or anti-CD8α, CD8β, and Me114) bound to magnetic microbeads, or to plastic. The purified cells were stimulated either by the anti-CD3 KT3 mAb (KT/7, KT/12, KT/22, KT/23), or by an anti-Vβ8.2 mAb (Vβ/9), and addition of IL-2 or IL-2 and IL-7. After 4-5 days of culture the cells were fused with BW5147 thymoma cells. The VII68, VIII24, XVI9, and XV104 diverse TCR hybridomas were generated from CD4^+ T cells from class 110 mice, as described previously (Cardell, S. et al., J. Exp. Med., 182:993-1004 (1995)). The DN32D3 hybridoma was derived as described (Lantz, O., and Bendelac, A., J. Exp. Med., 180:1097-106 (1994).
(§2) To test for recognition of the mCD1d fusion protein and purified or synthetic antigens, 96 well protein A coated plates (Pierce Chemical Company) were incubated with 400-600 ng/well of the fusion protein or a negative control IgG2a antibody, RPC5.4 or UPC10, in PBS, at pH 7.2. Lipid antigens were diluted into PBS and added where specified at the indicated molar ratio of antigen to fusion protein, (when not specified the ratio was 40:1). Protein A plates containing the fusion protein and antigen were incubated 24-48 hr at 37° C., then washed three times with 200 μl/well sterile PBS, pH 7.2, and two times with 200 μl/well sterile culture medium (containing RPMI supplemented with L-glutamine and penicillin/streptomycin, Life Technologies, Gaithersburg, Md., and 10% bovine calf serum, Hyclone Laboratories, Logan, Utah). For assays in which the PI was phospholipase treated, it was first diluted into 0.01M Tris, 0.15M NaCl, pH 7.5, containing 0.25 U PI-specific phospholipase C or 0.5 U phospholipase D (Sigma, St Louis, Mo.), and incubated 30 minutes at room temperature, then added to the protein A plates as described above. For assays in which the pH was varied during antigen incubation with the fusion protein, the fusion protein and α-GalCer were diluted into a 20 mM citrate/phosphate buffer of the specified pH, which contained 0.15 M NaCl, and after incubation, the samples were neutralized by addition of 1M Tris, pH 7.5. Hybridoma cells were added to fusion protein/antigen treated plates at a concentration of 1×10^5 cells/well, in a total volume of 150 μl/well. Assays were performed using 2-6 replicate wells. In some assays, an anti-mCD1d blocking antibody (19G11) was included at a final concentration of 20 μg/ml. The plates were incubated at 37° C. for 16-20 hr, and culture supernatants were withdrawn for analysis. Each experiment was performed at least three times.
(§3) IL-2 secreted in the hybridoma stimulation assays was quantitated in a double antibody sandwich ELISA, by comparison to a standard curve of purified murine IL-2 (Pharmingen, San Diego, Calif.). Hybridoma plate stimulation supernatants (used either neat or diluted) and serially diluted IL-2 standards were added to 96 well ELISA plates coated with a rat anti-mouse IL-2 capture antibody (Pharmingen).

14S.15.A hybridoma = conditions: 14S.15.A diverse TCR hybridoma; plate-bound mCD1d-IgGFc2a fusion protein preincubated with lipid antigen
Source text: as §1, §2
as §3, with “(Pharmingen). […]” for “(Pharmingen).”

14S.6.A hybridoma = conditions: 14S.6.A diverse TCR hybridoma; plate-bound mCD1d-IgGFc2a fusion protein preincubated with lipid antigen
Source text: as §1, §2
as §3, with “(Pharmingen). […]” for “(Pharmingen).”

14S.7.N hybridoma = conditions: 14S.7.N diverse TCR hybridoma; plate-bound mCD1d-IgGFc2a fusion protein preincubated with lipid antigen
Source text: as §1, §2
as §3, with “(Pharmingen). […]” for “(Pharmingen).”

24.7.C hybridoma = conditions: 24 7.C NKT hybridoma; plate-bound mCD1d-IgGFc2a fusion protein preincubated with lipid antigen
Source text: as §1, §2
as §3, with “(Pharmingen). […]” for “(Pharmingen).”

24.9.E hybridoma = conditions: 24.9 E NKT hybridoma; plate-bound mCD1d-IgGFc2a fusion protein preincubated with lipid antigen
Source text: as §1, §2
as §3, with “(Pharmingen). […]” for “(Pharmingen).”

DN32D3 hybridoma = conditions: DN32D3 NKT hybridoma; plate-bound mCD1d-IgGFc2a fusion protein preincubated with lipid antigen
Source text: as §1, §2
as §3, with “(Pharmingen). […]” for “(Pharmingen).”

KT/12 hybridoma = conditions: KT/12 NKT hybridoma; plate-bound mCD1d-IgGFc2a fusion protein preincubated with lipid antigen
Source text: as §1, §2
as §3, with “(Pharmingen). […]” for “(Pharmingen).”

KT/22 hybridoma = conditions: KT/22 NKT hybridoma; plate-bound mCD1d-IgGFc2a fusion protein preincubated with lipid antigen
Source text: as §1, §2
as §3, with “(Pharmingen). […]” for “(Pharmingen).”

KT/23 hybridoma = conditions: KT/23 NKT hybridoma; plate-bound mCD1d-IgGFc2a fusion protein preincubated with lipid antigen
Source text: as §1, §2
as §3, with “(Pharmingen). […]” for “(Pharmingen).”

KT/7 hybridoma = conditions: KT/7 NKT hybridoma; plate-bound mCD1d-IgGFc2a fusion protein preincubated with lipid antigen
Source text: as §1, §2
as §3, with “(Pharmingen). […]” for “(Pharmingen).”

VII68 hybridoma = conditions: VII68 diverse TCR hybridoma; plate-bound mCD1d-IgGFc2a fusion protein preincubated with lipid antigen
Source text: as §1, §2
as §3, with “(Pharmingen). […]” for “(Pharmingen).”

VIII24 hybridoma = conditions: VIII24 diverse TCR hybridoma; plate-bound mCD1d-IgGFc2a fusion protein preincubated with lipid antigen
Source text: as §1, §2
as §3, with “(Pharmingen). […]” for “(Pharmingen).”

Vβ/9 hybridoma = conditions: Vβ/9 NKT hybridoma; plate-bound mCD1d-IgGFc2a fusion protein preincubated with lipid antigen
Source text: as §1, §2
as §3, with “(Pharmingen). […]” for “(Pharmingen).”

XV104 hybridoma = conditions: XV104 diverse TCR hybridoma; plate-bound mCD1d-IgGFc2a fusion protein preincubated with lipid antigen
Source text: as §1, §2
as §3, with “(Pharmingen). […]” for “(Pharmingen).”

XV19 hybridoma = conditions: XV19 diverse TCR hybridoma; plate-bound mCD1d-IgGFc2a fusion protein preincubated with lipid antigen
Source text: as §1, §2
as §3, with “(Pharmingen). […]” for “(Pharmingen).”

## CCCCCCCCCCCCCCCC(=O)OCC(COP(=O)(O)O)OC(=O)CCCCCCCCCCCCCCC (stereo not drawn) [PA, phosphatidic acid]
24.8.A hybridoma
  IL-2 response to mCD1d fusion protein pre-treated with purified or synthetic lipid: little or no stimulation
24.8.A hybridoma; 24.8 A NKT hybridoma, plate-bound mCD1d-IgGFc2a fusion protein preincubated with lipid antigen
  IL-2 secretion: + (“+” indicates 50-250 pg/ml)
14S.15.A hybridoma
  IL-2 secretion: 0 (A “0” indicates a mean of less than 50 pg/ml IL-2 was secreted)
14S.6.A hybridoma
  IL-2 secretion: 0 (A “0” indicates a mean of less than 50 pg/ml IL-2 was secreted)
14S.7.N hybridoma
  IL-2 secretion: 0 (A “0” indicates a mean of less than 50 pg/ml IL-2 was secreted)
24.7.C hybridoma
  IL-2 secretion: 0 (A “0” indicates a mean of less than 50 pg/ml IL-2 was secreted)
24.9.E hybridoma
  IL-2 secretion: 0 (A “0” indicates a mean of less than 50 pg/ml IL-2 was secreted)
DN32D3 hybridoma
  IL-2 secretion: 0 (A “0” indicates a mean of less than 50 pg/ml IL-2 was secreted)
KT/12 hybridoma
  IL-2 secretion: 0 (A “0” indicates a mean of less than 50 pg/ml IL-2 was secreted)
KT/22 hybridoma
  IL-2 secretion: 0 (A “0” indicates a mean of less than 50 pg/ml IL-2 was secreted)
KT/23 hybridoma
  IL-2 secretion: 0 (A “0” indicates a mean of less than 50 pg/ml IL-2 was secreted)
KT/7 hybridoma
  IL-2 secretion: 0 (A “0” indicates a mean of less than 50 pg/ml IL-2 was secreted)
VII68 hybridoma
  IL-2 secretion: 0 (A “0” indicates a mean of less than 50 pg/ml IL-2 was secreted)
VIII24 hybridoma
  IL-2 secretion: 0 (A “0” indicates a mean of less than 50 pg/ml IL-2 was secreted)
Vβ/9 hybridoma
  IL-2 secretion: 0 (A “0” indicates a mean of less than 50 pg/ml IL-2 was secreted)
XV104 hybridoma
  IL-2 secretion: 0 (A “0” indicates a mean of less than 50 pg/ml IL-2 was secreted)
XV19 hybridoma
  IL-2 secretion: 0 (A “0” indicates a mean of less than 50 pg/ml IL-2 was secreted)

## O[C@H]1[C@H](O)[C@@H](O)[C@H](O)[C@@H](O)[C@H]1O [inositol]
24.8.A hybridoma
  IL-2 response to mCD1d fusion protein pre-treated with purified or synthetic lipid: little or no stimulation

## CCCCCCCCCCCCCCCC(=O)O [palmitate, Palmitic acid]
24.8.A hybridoma
  IL-2 response to mCD1d fusion protein pre-treated with purified or synthetic lipid: little or no stimulation

## diacyl glyceride [DAG]
24.8.A hybridoma
  IL-2 response to mCD1d fusion protein pre-treated with purified or synthetic lipid: little or no stimulation
14S.15.A hybridoma
  IL-2 secretion: 0 (A “0” indicates a mean of less than 50 pg/ml IL-2 was secreted)
14S.6.A hybridoma
  IL-2 secretion: 0 (A “0” indicates a mean of less than 50 pg/ml IL-2 was secreted)
14S.7.N hybridoma
  IL-2 secretion: 0 (A “0” indicates a mean of less than 50 pg/ml IL-2 was secreted)
24.7.C hybridoma
  IL-2 secretion: 0 (A “0” indicates a mean of less than 50 pg/ml IL-2 was secreted)
24.9.E hybridoma
  IL-2 secretion: 0 (A “0” indicates a mean of less than 50 pg/ml IL-2 was secreted)
DN32D3 hybridoma
  IL-2 secretion: 0 (A “0” indicates a mean of less than 50 pg/ml IL-2 was secreted)
KT/12 hybridoma
  IL-2 secretion: 0 (A “0” indicates a mean of less than 50 pg/ml IL-2 was secreted)
KT/22 hybridoma
  IL-2 secretion: 0 (A “0” indicates a mean of less than 50 pg/ml IL-2 was secreted)
KT/23 hybridoma
  IL-2 secretion: 0 (A “0” indicates a mean of less than 50 pg/ml IL-2 was secreted)
KT/7 hybridoma
  IL-2 secretion: 0 (A “0” indicates a mean of less than 50 pg/ml IL-2 was secreted)
VII68 hybridoma
  IL-2 secretion: 0 (A “0” indicates a mean of less than 50 pg/ml IL-2 was secreted)
VIII24 hybridoma
  IL-2 secretion: 0 (A “0” indicates a mean of less than 50 pg/ml IL-2 was secreted)
Vβ/9 hybridoma
  IL-2 secretion: 0 (A “0” indicates a mean of less than 50 pg/ml IL-2 was secreted)
XV104 hybridoma
  IL-2 secretion: 0 (A “0” indicates a mean of less than 50 pg/ml IL-2 was secreted)
XV19 hybridoma
  IL-2 secretion: 0 (A “0” indicates a mean of less than 50 pg/ml IL-2 was secreted)

## phosphatidylethanolamine [PE]
24.8.A hybridoma
  IL-2 response to mCD1d fusion protein pre-treated with purified or synthetic lipid: dose dependent responses
14S.15.A hybridoma
  IL-2 secretion: 0 (A “0” indicates a mean of less than 50 pg/ml IL-2 was secreted)
14S.6.A hybridoma
  IL-2 secretion: + (“+” indicates 50-250 pg/ml)
14S.7.N hybridoma
  IL-2 secretion: 0 (A “0” indicates a mean of less than 50 pg/ml IL-2 was secreted)
24.7.C hybridoma
  IL-2 secretion: 0 (A “0” indicates a mean of less than 50 pg/ml IL-2 was secreted)
24.9.E hybridoma
  IL-2 secretion: 0 (A “0” indicates a mean of less than 50 pg/ml IL-2 was secreted)
DN32D3 hybridoma
  IL-2 secretion: 0 (A “0” indicates a mean of less than 50 pg/ml IL-2 was secreted)
